# Test results reported in patent US20260250247A1, “NOVEL INDOLINE DERIVATIVE AND USE THEREOF” (CK REGEON INC., priority 2023, published 2026).
# Counter-ions that a name gives are not always drawn.
# What was measured:
# [1] = tested on: mice induced with metabolic dysfunction-associated steatohepatitis (MASH); test: Liver fibrosis score from collagen staining (Picrosirius red) in MASH mice; format: in vivo, C57BL/6N mice; conditions: 25 mg/kg/day orally for 4 weeks; mean±SD; normal group 0, MASH group 3.11
# Experimental: (§1) Five-week-old wild-type male C57BL/6N mice were purchased from Orient Bio Co., Ltd. They were allowed to acclimate to the laboratory environment for one week. Mice weighing 18-20 g on average were used in the experiment. To ensure ethical and scientific validity and efficient management of animal experiments, the experiment was conducted with the approval of the Institutional Review Board (IACUC-A-202205-1472-01) of Severance Hospital, Yonsei University College of Medicine.
# (§2) The mice were divided into a normal group (NCD) and a high-fat diet group (HFD). The normal group (NCD) was fed a normal chow diet (NCD, Teklad Global 18% protein rodent diet), and the high-fat diet group (HFD) was fed a high-fat diet (HFD, D12492) in which fat accounted for 60% of the total calories, for 8 weeks.
# (§3) Mice induced with metabolic dysfunction-associated steatohepatitis (MASH) (hereinafter, referred to as MASH or MASH group) were prepared by administering CCl4 intraperitoneally twice a week for 4 weeks after feeding the high-fat diet (HFD) for 8 weeks. The […] was diluted with corn oil at a ratio of 1:19 and injected at a dosage of 2 mL/kg. The normal group (NOD) was administered the same volume of physiological saline.
# (§4) The animals were divided into 7 groups, each with 10 animals.
# After preparing the 7 groups, the animals were euthanized using carbon dioxide and the liver tissues were extracted. The extracted tissues were fixed in 4% neutral paraformaldehyde and embedded in paraffin to prepare sections. The paraffin sections were cut to 4-μm thickness, deparaffinized, and then rehydrated. The hydrated sections were stained with a Weigert's iron hematoxylin solution for 8 minutes and then with Picrosirius red for 1 hour. Collagen fibers were stained red and nuclei were stained blue. The sections were photographed using a bright-field microscope (Nikon TE-2000U).
# The main mechanism of nonalcoholic fatty liver disease is the induction of hepatic stellate cell activation, which induces collagen production and leads to liver fibrosis due to collagen accumulation. From the result of collagen staining (Picrosirius red) for observing the total amount of collagen deposition in Test Example 3-6, the liver fibrosis score was analyzed. Stages 2 to 3 were diagnosed as nonalcoholic fatty liver disease (MASH) (M. Brunt et al., 2005).
# All quantitative data are presented as mean±standard deviation (SD). In each experiment, all measurements were made at least three times, and data were analyzed using the two-tailed, unpaired Student's t test. P values of <0.05 were considered statistically significant.
# 3T3-L1 pre-adipocytes = test: Inhibition of adipocyte differentiation and lipid accumulation, Oil Red O; format: cell-based; conditions: 3T3-L1, compound 1 μM, MDI-induced differentiation for 8 days, Oil Red O eluted, absorbance 544 nm; for activity at 1 µM: Mus musculus, 192 h, read-out: lipid accumulation rate
# Experimental: 3T3-L1 cells were seeded in a 6-well plate at a density of […] cells per well. The cells were grown to 100% confluency in Dulbecco's modified Eagle's medium (DMEM) supplemented with 10% bovine calf serum (BCS; GIBCO). Two days after reaching 100% confluency, differentiation was induced with or without treatment with the indoline compound at a concentration of 1 μM in DMEM containing 10% fetal bovine serum (FBS; GIBCO) and MDI (520 μM methylisobutylxanthine (IBMX; Sigma-Aldrich), 1 μM dexamethasone (Sigma-Aldrich), and 5 μM insulin (GIBCO)). On day 3, the medium was replaced with DMEM containing 10% FBS and 5 μM insulin with or without the indoline compound, and then with a fresh identical medium every 2 days. After differentiation for 8 days, the culture medium was removed, and the cells were washed with PBS and then fixed with 10% formaldehyde for 1 hour. After removing the 10% formaldehyde, the cells were washed thoroughly with distilled water. After that, 60% isopropanol was added and immediately then removed. After washing with distilled water, lipid droplets were stained with an Oil Red O dye solution for 20 minutes and then washed with distilled water. The cells were counterstained with Mayer's hematoxylin. Oil Red O images were visualized using a bright-field microscope (Nikon TE-2000U). To quantify the accumulated lipids, Oil Red O was eluted by adding isopropanol, and absorbance was measured spectrophotometrically at 544 nm using a multi-plate reader.
# As A3051 (KY19382) and A3334, self-developed and synthesized materials were used. As BIO, or GSK 3 Inhibitor IX, also known as 6-bromoindirubin-3′-oxime, HY-10580 was purchased commercially.
# In FIG. 2, the undifferentiated group (Un Diff) refers to undifferentiated adipocytes, or preadipocytes that had not been induced to differentiate, and the differentiated group (Diff) refers to fully differentiated adipocytes.
# [2] = biological target: CXXC5-Dvl interaction (PDZ domain of Dvl (dishevelled) protein / PTD-DBM-FITC); test: CXXC5-Dvl binding inhibition, competition of PTD-DBM-FITC on plate-bound Dvl PDZ domain; conditions: purified Dvl PDZ domain 5 μg/mL, 10 μM PTD-DBM-FITC, compounds 0.001-100 μM, FITC fluorescence
# Experimental: 5 μg/mL of the purified PDZ domain ofDvl (dishevelled) protein was attached to the bottom of a 96-well black immunoplate and left in a chamber at 4° C. for one day. The next day, each well was washed with PBS and 10 μM PTD-DBM-FITC was added. After incubation at room temperature for 3 hours, each well was washed with PBS. Each well was treated with the indoline derivatives at various concentrations (100, 10, 1, 0.1, 0.01, and 0.001 μM) in 100 μL of PBS. After washing with a buffer, fluorescence was measured by FITC using a microplate reader. A competition binding curve showing the degree of CXXC5-Dvl PPI inhibition was constructed using the GraphPad Prism software, and the IC50 value was calculated. […] CK090), and the intermediate compound 5-cyanoindirubin as controls.
# [3] = tested on: lipid droplets / PPARγ in liver tissue; test: Liver Oil Red O staining and PPARγ immunohistochemistry in MASH mice; format: in vivo, C57BL/6N mice; conditions: 25 mg/kg/day orally for 4 weeks
# Experimental: as §1, §2, §3, §4
# It was investigated whether the accumulation of triglycerides in the liver is suppressed effectively. For this purpose, liver tissue was extracted from each group, and it was prepared into 10-μm thick cryosections, which were then stained with Oil Red O. Details are as follows. After preparing the 7 groups, the animals were euthanized using carbon dioxide and the liver tissues were extracted. A certain area of the extracted liver tissue was cryosectioned to 10 μm thickness, fixed in 4% neutral paraformaldehyde for 20 minutes at room temperature, and washed with 70% isopropanol (Duksan Pure Chemicals). After staining with the Oil Red O (Sigma-Aldrich) reagent for 20 minutes, the sections were washed thoroughly three times with distilled water. The tissue was counterstained with Mayer's hematoxylin. Then, Oil Red O staining images were visualized using a bright-field microscope (Nikon TE-2000U).
# After preparing the 7 groups, the animals were sacrificed using carbon dioxide and the liver tissues were extracted. The extracted tissues were fixed in 4% neutral paraformaldehyde and embedded in paraffin to prepare sections. The paraffin sections were cut to 4-μm thickness, deparaffinized, and then rehydrated. For antigen exposure, slides were autoclaved in a 10 mM sodium citrate buffer (pH 6.0). To block endogenous peroxidase activity prior to peroxidase IHC analysis, the tissues were incubated with 0.3% H2O2 for 10 minutes. The incubated sections were treated with phosphate-buffered saline (PBS) containing 10% NGS and 0.3% Tween-20 for 1 hour at room temperature, treated with primary antibodies of anti-PPARγ (1:50; Abcam), and incubated overnight at 4° C.
# The sections treated with the primary antibodies were washed with PBS and incubated with biotinylated anti-mouse (1:400; Dako) or anti-rabbit (1:400; Dako) secondary antibodies for 1 hour at room temperature. The sections incubated with the secondary antibodies were stained with 3,3′-diaminobenzidine (DAB; Dako) for 3-7 minutes and then counterstained with Mayer's haematoxylin. All incubations were performed in a humid chamber. After the staining, images were taken and analyzed using a bright-field microscope (Nikon TE-2000U).
IC50 [2],Structure (SMILES),Degree of liver fibrosis (fibrosis score) [1],activity at 1 µM (3T3-L1 pre-adipocytes),"lipid droplet formation and lipid infiltration in liver, Oil Red O staining [3]",lipid accumulation rate (3T3-L1 pre-adipocytes)
19.3 nM,"N#Cc1ccc2c(c1)/C(=C1/Nc3ccccc3/C1=N\OCCN1CCNCC1)C(=O)N2 [Example 1, (2Z,3E)-2′-oxo-3-((2-(piperazin-1-yl)ethoxy)imino)-[2,3′-biindolinylidene]-5′-carbonitrile]",2.00,32.2%,the size and number of lipid droplets were significantly reduced,–
26.1 nM,"N#Cc1ccc2c(c1)/C(=C1/Nc3ccccc3/C1=N\OCCN1CC[S+]([O-])CC1)C(=O)N2 [Example 14, (2Z,3E)-3-((2-(1-oxidothiomorpholino)ethoxy)imino)-2′-oxo-[2,3′-biindolinidene]-5′-carbonitrile hydrochloride]",–,26.8%,–,–
17.2 nM,"N#Cc1ccc2c(c1)/C(=C1/Nc3ccccc3/C1=N\OCCCN1CCCC1)C(=O)N2 [Example 8, (2Z,3E)-2′-oxo-3-((3-(pyrrolidin-1-yl)propoxy)imino)-[2,3′-biindolinylidene]-5′-carbonitrile]",–,25.1%,–,–
20.4 nM,"N#Cc1ccc2c(c1)/C(=C1/Nc3ccccc3/C1=N\OCCCN1CCNCC1)C(=O)N2 [Example 9, (2Z,3E)-2′-oxo-3-((3-(piperazin-1-yl)propoxy)imino)-[2,3′-biindolinylidene]-5′-carbonitrile]",–,25.4%,–,–
45.2 nM,"N#Cc1ccc2c(c1)/C(=C1/Nc3ccccc3/C1=N\OCCN1CCCC1C(=O)O)C(=O)N2 (stereo not shown) [Example 15, (2-((((2Z,3E)-5′-cyano-2′-oxo-[2,3′-biindolinidene]-3-ylidene)amino)oxy)ethyl)proline]",–,24.8%,–,–
10.8 nM,"N#Cc1ccc2c(c1)/C(=C1/Nc3ccccc3/C1=N\OCCCN1CCCCC1)C(=O)N2 [Example 7, (2Z,3E)-2′-oxo-3-((3-(piperidin-1-yl)propoxy)imino)-[2,3′-biindolinylidene]-5′-carbonitrile]",–,33.6%,–,–
12.3 nM,"CN1CCN(CCCO/N=C2/C(=C3/C(=O)Nc4ccc(C#N)cc43)Nc3ccccc32)CC1 [Example 11, (2Z,3E)-3-((3-(4-methylpiperazin-1-yl)propoxy)imino)-2′-oxo-[2,3′-biindolinylidene]-5′-carbonitrile]",–,24.1%,–,–
6.26 nM,"N#Cc1ccc2c(c1)/C(=C1/Nc3ccccc3/C1=N\OCCCN1CCSCC1)C(=O)N2 [Example 12, (2Z,3E)-2′-oxo-3-((3-thiomorpholinopropoxy)imino)-[2,3′-biindolinylidene]-5′-carbonitrile]",–,27.4%,–,–
4220 nM,"Cc1cc2c(cc1Cl)NC(=O)/C2=C1\Nc2ccccc2\C1=N/OCCN1CCN(C)CC1 [CK090, (2Z,3E)-6′-chloro-5′-methyl-3-((2-(4-methylpiperazin-1-yl)ethoxy)imino)-[2,3′-biindolinylidene]-2′-one, reference compound]",–,–,–,–
9.29 nM,"N#Cc1ccc2c(c1)/C(=C1/Nc3ccccc3/C1=N\OCCN1CCCCC1)C(=O)N2 [Example 5, (2Z,3E)-2′-oxo-3-((2-(piperidin-1-yl)ethoxy)imino)-[2,3′-biindolinylidene]-5′-carbonitrile]",–,26.2%,–,–
–,"COc1ccc2c(c1)/C(=C1/Nc3ccccc3/C1=N\O)C(=O)N2 [Example A3334, reference compound]",–,–,–,78.7%
2.65 nM,"N#Cc1ccc2c(c1)/C(=C1/Nc3ccccc3/C1=N\OCCN1CCS(=O)(=O)CC1)C(=O)N2 [Example 13, (2Z,3E)-3-((2-(1,1-dioxidothiomorpholino)ethoxy)imino)-2′-oxo-[2,3′-biindolinidene]-5′-carbonitrile]",–,26.6%,–,–
12.7 nM,"N#Cc1ccc2c(c1)/C(=C1/Nc3ccccc3/C1=N\OCCCN1CCOCC1)C(=O)N2 [Example 10, (2Z,3E)-3-((3-morpholinopropoxy)imino)-2′-oxo-[2,3′-biindolinylidene]-5′-carbonitrile]",–,24.3%,–,–
53900 nM,"O=C1Nc2ccccc2/C1=C1/Nc2ccccc2C1=O [Indirubin, (Z)-[2,3′-biindolinylidene]-2′,3-dione, reference compound]",–,96.4%,–,–
–,"O=C1Nc2cc(Br)ccc2/C1=C1/Nc2ccccc2/C1=N\O [BIO, 6-bromoindirubin-3′-oxime, reference compound]",–,–,–,79.4%
37 nM,"N#Cc1ccc2c(c1)/C(=C1/Nc3ccccc3/C1=N\OCCN1CCCC1)C(=O)N2 [Example 6, (2Z,3E)-2′-oxo-3-((2-(pyrrolidin-1-yl)ethoxy)imino)-[2,3′-biindolinylidene]-5′-carbonitrile]",–,25.8%,–,–
